Common to all, as to test: In vitro profiling, binding assay
For one data set, the target named is 5-HT1B (Homo sapiens, UniProt P28222). On the procedure:
(§1) Binding and functional assays of CGAs with the proteins known to be pharmacological targets related to the CVS, CNS, and GI functions were conducted. […] In the binding assay, we measured the radiation activity of the solution containing filtered proteins that bound to the tested compound or high-affinity ligand, while in the functional assays, we measured the reaction product. The ability of the test compound to interact with the tested targets was measured as the inhibition of ligand binding to the target or reaction product production (% inhibition).

The next data set deals with 5-HT2B (Homo sapiens, UniProt P41595). On the procedure: as §1
Sequence of 5-HT2B (P41595 whole entry): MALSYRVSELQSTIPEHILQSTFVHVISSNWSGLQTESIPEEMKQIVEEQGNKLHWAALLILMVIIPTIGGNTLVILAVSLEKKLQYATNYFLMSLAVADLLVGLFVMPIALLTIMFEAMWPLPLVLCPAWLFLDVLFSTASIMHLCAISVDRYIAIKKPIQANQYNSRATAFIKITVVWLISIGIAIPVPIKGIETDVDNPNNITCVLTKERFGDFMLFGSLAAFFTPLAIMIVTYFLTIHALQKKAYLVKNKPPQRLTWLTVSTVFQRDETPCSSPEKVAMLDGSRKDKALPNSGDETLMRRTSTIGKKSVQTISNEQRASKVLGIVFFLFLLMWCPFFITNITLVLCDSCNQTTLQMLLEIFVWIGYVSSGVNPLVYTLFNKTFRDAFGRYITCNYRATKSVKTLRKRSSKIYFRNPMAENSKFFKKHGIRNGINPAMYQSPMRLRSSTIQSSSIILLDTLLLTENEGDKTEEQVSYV
The target in another data set is Adenosine A2A (Homo sapiens, UniProt P29274). As to the method: as §1
Sequence of Adenosine A2A (P29274 whole entry): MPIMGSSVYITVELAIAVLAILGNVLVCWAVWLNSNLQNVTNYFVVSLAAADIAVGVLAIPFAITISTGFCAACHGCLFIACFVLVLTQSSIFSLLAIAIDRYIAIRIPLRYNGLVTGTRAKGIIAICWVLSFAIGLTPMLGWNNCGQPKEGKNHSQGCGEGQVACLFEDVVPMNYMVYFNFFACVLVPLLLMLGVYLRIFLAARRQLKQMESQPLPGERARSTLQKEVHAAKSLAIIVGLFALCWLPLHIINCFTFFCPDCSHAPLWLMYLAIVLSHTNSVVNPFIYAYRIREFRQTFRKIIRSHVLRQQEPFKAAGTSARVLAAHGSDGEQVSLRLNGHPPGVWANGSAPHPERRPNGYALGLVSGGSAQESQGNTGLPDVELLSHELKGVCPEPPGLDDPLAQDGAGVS
A further data set has as its target T1, Adrenergic α1A (Rattus norvegicus, UniProt P43140).
T1 sequence (P43140 1-466): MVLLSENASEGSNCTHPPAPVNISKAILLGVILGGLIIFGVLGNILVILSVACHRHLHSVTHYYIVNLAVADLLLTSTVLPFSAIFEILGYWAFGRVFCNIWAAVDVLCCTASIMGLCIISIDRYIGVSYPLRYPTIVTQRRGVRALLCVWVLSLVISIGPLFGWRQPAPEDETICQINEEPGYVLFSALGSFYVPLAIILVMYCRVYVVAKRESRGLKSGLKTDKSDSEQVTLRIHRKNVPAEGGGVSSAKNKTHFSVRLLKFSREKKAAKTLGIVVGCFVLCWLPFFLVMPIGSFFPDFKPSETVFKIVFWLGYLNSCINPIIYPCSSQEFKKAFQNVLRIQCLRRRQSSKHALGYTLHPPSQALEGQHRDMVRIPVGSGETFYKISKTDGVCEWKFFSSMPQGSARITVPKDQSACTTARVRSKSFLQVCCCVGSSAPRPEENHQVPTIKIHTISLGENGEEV
As to the method: as §1

In a further data set the target is T2, Adrenergic α2A (Homo sapiens, UniProt P08913).
T2 sequence (P08913 1-465): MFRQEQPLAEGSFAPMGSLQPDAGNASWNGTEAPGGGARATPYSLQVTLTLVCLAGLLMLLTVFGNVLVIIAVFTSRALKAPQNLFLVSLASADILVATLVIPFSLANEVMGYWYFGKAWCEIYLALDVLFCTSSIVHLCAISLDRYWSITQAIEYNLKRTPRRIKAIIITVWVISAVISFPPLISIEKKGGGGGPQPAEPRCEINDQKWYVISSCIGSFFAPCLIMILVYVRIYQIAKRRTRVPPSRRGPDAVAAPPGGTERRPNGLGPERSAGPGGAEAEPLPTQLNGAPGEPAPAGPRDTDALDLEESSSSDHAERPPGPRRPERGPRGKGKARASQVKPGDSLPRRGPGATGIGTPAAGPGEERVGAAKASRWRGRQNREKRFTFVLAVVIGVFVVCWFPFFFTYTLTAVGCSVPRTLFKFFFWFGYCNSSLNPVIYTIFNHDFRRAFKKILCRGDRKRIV
As to the method: as §1

In the next data set the target is Dopamine D1 (Homo sapiens, UniProt P21728). On the procedure:
as §1

Another data set has as its target T3, Endothelin ETA (Homo sapiens, UniProt P25101).
T3 sequence (P25101 21-427): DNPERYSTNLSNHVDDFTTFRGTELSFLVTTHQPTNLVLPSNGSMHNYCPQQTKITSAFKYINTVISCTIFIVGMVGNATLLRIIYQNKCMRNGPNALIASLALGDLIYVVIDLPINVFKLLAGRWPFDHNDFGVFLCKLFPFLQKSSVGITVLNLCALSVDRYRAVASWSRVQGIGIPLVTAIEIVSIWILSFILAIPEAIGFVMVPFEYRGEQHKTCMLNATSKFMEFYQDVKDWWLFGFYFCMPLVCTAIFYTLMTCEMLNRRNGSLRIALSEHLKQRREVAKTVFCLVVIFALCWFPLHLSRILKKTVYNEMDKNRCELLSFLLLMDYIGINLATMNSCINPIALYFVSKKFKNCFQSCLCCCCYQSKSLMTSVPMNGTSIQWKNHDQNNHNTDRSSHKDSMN
On the procedure:
as §1

The next data set deals with T4, Muscarinic M1 (Homo sapiens, UniProt P11229).
T4 sequence (P11229 1-460): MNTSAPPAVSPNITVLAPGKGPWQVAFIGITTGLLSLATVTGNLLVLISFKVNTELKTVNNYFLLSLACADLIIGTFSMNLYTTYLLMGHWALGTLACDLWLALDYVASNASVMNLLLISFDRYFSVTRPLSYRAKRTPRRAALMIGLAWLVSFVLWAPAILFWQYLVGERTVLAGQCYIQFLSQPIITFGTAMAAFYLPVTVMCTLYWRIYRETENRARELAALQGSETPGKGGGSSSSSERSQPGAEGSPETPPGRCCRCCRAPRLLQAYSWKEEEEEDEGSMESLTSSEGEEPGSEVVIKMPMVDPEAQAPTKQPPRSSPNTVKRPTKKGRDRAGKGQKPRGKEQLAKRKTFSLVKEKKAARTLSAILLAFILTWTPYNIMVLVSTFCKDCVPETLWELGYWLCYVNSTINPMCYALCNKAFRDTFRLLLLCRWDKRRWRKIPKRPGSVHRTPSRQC
On the procedure:
as §1

The target in another data set is Muscarinic M3 (Homo sapiens, UniProt P20309). On the procedure:
as §1

Data set [1] deals with Transporter, Norepinephrine (NET) (Homo sapiens, UniProt P23975). On the procedure: as §1
Sequence of Transporter, Norepinephrine (NET) (P23975 whole entry): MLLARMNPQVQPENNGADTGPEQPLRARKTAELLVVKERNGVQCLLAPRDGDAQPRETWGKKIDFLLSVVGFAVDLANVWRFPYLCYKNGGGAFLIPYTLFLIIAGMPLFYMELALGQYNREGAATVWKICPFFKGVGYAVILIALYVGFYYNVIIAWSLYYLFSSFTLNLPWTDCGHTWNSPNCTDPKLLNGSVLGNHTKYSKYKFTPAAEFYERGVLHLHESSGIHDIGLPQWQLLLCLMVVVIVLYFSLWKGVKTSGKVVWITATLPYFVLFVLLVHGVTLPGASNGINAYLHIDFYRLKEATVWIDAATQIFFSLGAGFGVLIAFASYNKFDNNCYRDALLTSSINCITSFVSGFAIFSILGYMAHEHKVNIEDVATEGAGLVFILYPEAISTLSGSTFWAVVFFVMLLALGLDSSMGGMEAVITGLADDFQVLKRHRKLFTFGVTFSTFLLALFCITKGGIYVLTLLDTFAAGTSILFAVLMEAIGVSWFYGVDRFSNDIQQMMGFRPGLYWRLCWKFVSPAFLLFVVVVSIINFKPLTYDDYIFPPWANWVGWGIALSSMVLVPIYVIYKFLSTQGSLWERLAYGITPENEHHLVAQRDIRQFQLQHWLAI
Another data set has as its target Vasopressin V1A (Homo sapiens, UniProt P37288). On the procedure: as §1
A further data set concerns the target hERG potassium channel (Homo sapiens, UniProt Q12809). As to the method: as §1
Where [2] appears, read: 30 µM, 5-HT1B, read-out: % Inhibition.
Where [3] appears, read: 30 µM, 5-HT2B, read-out: % Inhibition.
Setting [4] is: 30 µM, Adenosine A2A, read-out: % Inhibition.
The mark [5] stands for this setting: 30 µM, Adrenergic α1A, read-out: % Inhibition.
[6] abbreviates: 30 µM, Adrenergic α2A, read-out: % Inhibition.
The mark [7] stands for this setting: 30 µM, Dopamine D1, read-out: % Inhibition.
The mark [8] stands for this setting: 30 µM, Endothelin ETA, read-out: % Inhibition.
Setting [9] is: 30 µM, Transporter, Norepinephrine (NET), read-out: % Inhibition.
The mark [10] stands for this setting: 30 µM, Vasopressin V1A, read-out: % Inhibition.
The mark [11] stands for this setting: probe radioisotope-labeled high-affinity ligand (not named), 30 µM, Potassium Channel hERG, read-out: % Inhibition.

What is called inhibition is the drop in the measured response relative to a control, in per cent. The % Inhibition is the change of the read-out against control, counted positive when it falls.

Read-outs that look alike come from different tables or passages of the source.

Sequence of 5-HT1B (P28222 whole entry): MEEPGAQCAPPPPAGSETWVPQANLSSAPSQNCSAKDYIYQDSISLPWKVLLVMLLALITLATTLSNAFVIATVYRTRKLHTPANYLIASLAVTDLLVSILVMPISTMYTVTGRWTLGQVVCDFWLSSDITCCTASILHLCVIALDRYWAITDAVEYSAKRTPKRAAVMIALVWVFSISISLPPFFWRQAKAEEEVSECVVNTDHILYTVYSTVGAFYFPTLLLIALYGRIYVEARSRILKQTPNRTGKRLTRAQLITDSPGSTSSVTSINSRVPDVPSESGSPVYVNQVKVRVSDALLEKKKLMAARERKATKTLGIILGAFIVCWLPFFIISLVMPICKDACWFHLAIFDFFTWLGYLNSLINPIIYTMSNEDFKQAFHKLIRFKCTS
Sequence of hERG potassium channel (Q12809 whole entry): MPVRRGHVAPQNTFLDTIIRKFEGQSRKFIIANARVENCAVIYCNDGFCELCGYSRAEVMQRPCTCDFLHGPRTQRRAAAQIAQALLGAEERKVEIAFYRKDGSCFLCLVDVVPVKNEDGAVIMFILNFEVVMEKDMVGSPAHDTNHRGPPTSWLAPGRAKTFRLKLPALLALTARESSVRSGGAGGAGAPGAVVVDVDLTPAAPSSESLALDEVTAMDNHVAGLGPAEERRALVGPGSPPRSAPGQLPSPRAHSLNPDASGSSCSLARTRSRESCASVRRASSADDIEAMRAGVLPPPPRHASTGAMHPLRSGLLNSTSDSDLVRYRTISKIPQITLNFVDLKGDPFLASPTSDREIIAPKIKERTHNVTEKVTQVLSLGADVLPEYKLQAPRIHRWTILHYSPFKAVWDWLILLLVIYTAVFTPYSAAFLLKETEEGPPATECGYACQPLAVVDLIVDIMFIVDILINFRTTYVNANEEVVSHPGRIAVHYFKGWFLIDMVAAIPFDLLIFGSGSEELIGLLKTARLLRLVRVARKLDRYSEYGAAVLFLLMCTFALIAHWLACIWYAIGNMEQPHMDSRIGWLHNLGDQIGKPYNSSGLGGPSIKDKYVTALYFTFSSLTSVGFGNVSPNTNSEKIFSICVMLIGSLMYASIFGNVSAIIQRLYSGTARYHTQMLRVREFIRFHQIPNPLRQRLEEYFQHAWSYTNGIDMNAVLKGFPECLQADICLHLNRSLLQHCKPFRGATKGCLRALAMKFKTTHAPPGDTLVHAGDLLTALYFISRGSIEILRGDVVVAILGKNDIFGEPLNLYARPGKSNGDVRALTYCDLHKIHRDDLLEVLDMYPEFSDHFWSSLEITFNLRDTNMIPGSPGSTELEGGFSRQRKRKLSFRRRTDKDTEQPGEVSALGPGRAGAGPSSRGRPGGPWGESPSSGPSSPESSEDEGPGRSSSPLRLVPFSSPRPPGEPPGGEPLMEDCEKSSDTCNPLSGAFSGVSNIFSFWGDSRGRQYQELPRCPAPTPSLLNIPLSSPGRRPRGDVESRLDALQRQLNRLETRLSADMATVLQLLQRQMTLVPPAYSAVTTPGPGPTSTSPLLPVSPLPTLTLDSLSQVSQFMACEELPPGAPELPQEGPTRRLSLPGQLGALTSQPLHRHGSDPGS
Sequence of Dopamine D1 (P21728 whole entry): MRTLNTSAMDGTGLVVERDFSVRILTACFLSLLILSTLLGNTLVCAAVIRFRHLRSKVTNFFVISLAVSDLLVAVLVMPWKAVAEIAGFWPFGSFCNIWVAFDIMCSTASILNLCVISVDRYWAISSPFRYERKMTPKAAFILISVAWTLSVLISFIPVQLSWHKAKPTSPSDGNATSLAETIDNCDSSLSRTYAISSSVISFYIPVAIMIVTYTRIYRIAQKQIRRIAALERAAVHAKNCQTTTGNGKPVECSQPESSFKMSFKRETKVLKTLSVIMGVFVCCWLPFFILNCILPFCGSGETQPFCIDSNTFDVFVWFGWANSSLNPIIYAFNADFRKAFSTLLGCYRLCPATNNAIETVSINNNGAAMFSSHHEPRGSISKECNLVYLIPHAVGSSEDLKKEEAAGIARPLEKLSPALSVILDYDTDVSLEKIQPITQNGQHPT
Sequence of Vasopressin V1A (P37288 whole entry): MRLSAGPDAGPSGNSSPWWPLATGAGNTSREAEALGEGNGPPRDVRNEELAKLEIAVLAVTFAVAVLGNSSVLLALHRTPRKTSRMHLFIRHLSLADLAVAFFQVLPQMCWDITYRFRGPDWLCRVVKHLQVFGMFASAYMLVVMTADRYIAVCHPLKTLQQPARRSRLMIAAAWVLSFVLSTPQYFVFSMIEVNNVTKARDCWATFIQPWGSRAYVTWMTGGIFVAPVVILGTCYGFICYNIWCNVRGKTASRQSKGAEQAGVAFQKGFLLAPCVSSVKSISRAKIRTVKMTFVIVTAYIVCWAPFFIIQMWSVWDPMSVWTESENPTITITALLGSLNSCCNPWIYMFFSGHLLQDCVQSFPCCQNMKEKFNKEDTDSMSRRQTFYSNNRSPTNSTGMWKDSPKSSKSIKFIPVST
Sequence of Muscarinic M3 (P20309 whole entry): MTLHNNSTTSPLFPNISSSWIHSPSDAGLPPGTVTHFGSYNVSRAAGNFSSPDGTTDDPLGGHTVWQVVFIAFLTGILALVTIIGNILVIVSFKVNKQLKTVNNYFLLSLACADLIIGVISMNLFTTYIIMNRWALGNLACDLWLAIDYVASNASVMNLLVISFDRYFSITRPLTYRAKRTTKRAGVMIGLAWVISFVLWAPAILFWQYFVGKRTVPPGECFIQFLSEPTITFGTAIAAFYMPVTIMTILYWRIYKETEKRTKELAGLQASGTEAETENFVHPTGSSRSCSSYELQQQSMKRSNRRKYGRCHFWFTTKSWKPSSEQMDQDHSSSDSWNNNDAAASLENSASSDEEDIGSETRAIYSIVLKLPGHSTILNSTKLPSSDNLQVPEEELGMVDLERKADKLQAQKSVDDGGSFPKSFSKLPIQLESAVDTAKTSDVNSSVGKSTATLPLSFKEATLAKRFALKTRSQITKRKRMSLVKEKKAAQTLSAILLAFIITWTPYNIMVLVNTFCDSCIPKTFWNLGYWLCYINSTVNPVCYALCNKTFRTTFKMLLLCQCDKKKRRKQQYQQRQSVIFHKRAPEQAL

In the case of `O=C(/C=C/c1ccc(O)c(O)c1)O[C@H]1C[C@@](O)(C(=O)O)C[C@H](O)[C@@H]1O` [5-CQA, 5-O-caffeoylquinic acid], the inhibition at 30 µM at 5-HT1B (setting [2]) is -1%; at 5-HT2B (setting [3]), -16%; at Adenosine A2A (setting [4]) it was -7%; on Adrenergic α1A (setting [5]), 14%; at Adrenergic α2A (setting [6]), 5%; on Dopamine D1 (setting [7]), 7%. The inhibition at 30 µM at Endothelin ETA (setting [8]) is 3%; on Muscarinic M1 it was 0%; at Muscarinic M3, 5%; in data set [1] (setting [9]), -3%; at Vasopressin V1A (setting [10]), 0%; on hERG potassium channel (setting [11]), 3%.

As for `COc1cc(/C=C/C(=O)O[C@H]2C[C@@](O)(C(=O)O)C[C@H](O)[C@@H]2O)ccc1O` [5-FQA, 5-O-feruloylquinic acid], the inhibition at 30 µM at 5-HT1B (setting [2]) was -10%; on 5-HT2B (setting [3]), -5%; at Adenosine A2A (setting [4]) it was 2%; on Adrenergic α1A (setting [5]) it was 10%; on Adrenergic α2A (setting [6]) it was -3%; at Dopamine D1 (setting [7]), 22%. For the same compound, the inhibition at 30 µM at Endothelin ETA (setting [8]) was 1%; on Muscarinic M1 (30 µM, Muscarinic M1, read-out: % Inhibition), -5%; on Muscarinic M3, 2%; in [1] (setting [9]) it was -1%; at Vasopressin V1A (setting [10]), 16%; at hERG potassium channel (setting [11]), 6%.

For the compound `O=C(O)/C=C/c1ccc(O)c(O)c1` [CA, caffeic acid], the “% Inhibition” value was 3% on 5-HT1B (30 µM, 5-HT1B); 1% at 5-HT2B (30 µM, 5-HT2B); 4% at Adenosine A2A (30 µM, Adenosine A2A); 10% on Adrenergic α1A (30 µM, Adrenergic α1A); −4% at Adrenergic α2A (30 µM, Adrenergic α2A); 5% at Dopamine D1 (30 µM, Dopamine D1). The “% Inhibition” value is 4% at Endothelin ETA (30 µM, Endothelin ETA); −3% on Muscarinic M3 (30 µM); 0% in data set [1] (30 µM, Transporter, Norepinephrine (NET)); 9% on Vasopressin V1A (30 µM, Vasopressin V1A). In addition, the figures for the inhibition at 30 µM at Muscarinic M1 and on hERG potassium channel were 5% and -19%, respectively.

For `COc1cc(/C=C/C(=O)O)ccc1O` [FA, ferulic acid], the inhibition at 30 µM on 5-HT1B was 4%; at 5-HT2B it was 5%; at Adenosine A2A, -14%; at Adrenergic α1A, -2%; at Adrenergic α2A, -2%; at Dopamine D1 it was -1%. The inhibition at 30 µM on Endothelin ETA was 1%; in data set [1], 2%; on Vasopressin V1A, 6%; on hERG potassium channel (30 µM, Potassium Channel hERG, read-out: % Inhibition), 7%.

For the origin of these results see PMC6789782, “Safety Pharmacological Evaluation of the Coffee Component, Caffeoylquinic Acid, and Its Metabolites, Using Ex Vivo and In Vitro Profiling Assays” (Pharmaceuticals, 2019).
